Assay results from ChEMBL document CHEMBL4818987, “Recent advances of podophyllotoxin/epipodophyllotoxin hybrids in anticancer activity, mode of action, and structure-activity relationship: An update (2010-2020)” (Eur J Med Chem, 2020).

How the values were obtained:
K562 [1] = assay: Antiproliferative activity against human K562 cells incubated for 72 hrs by CCK8 assay; assay type: functional, cell-based; conditions: K562, 72 h
K562/Adr [2] = assay: Potency index, ratio of etoposide IC50 to test compound IC50 for antiproliferative activity against human K562/ADM cells; assay type: functional
K562 [3] = assay: Potency index, ratio of etoposide IC50 to test compound IC50 for antiproliferative activity against human K562 cells; assay type: functional
K562/Adr [4] = assay: Antiproliferative activity against human K562/ADR cells incubated for 72 hrs by CCK8 assay; assay type: functional, cell-based
K562/VCR = assay: Cytotoxicity against human K562/VCR cells incubated for 72 hrs by CCK8 assay; assay type: functional, cell-based
K562 [5] = assay: Cytotoxicity against human K562 cells incubated for 72 hrs by CCK8 assay; assay type: functional, cell-based; conditions: K562, 72 h
L02 [6] = assay: Cytotoxicity against human L02 cells; assay type: cell-based
[7] = Selectivity ratio of IC50 for African green monkey Vero cells to IC50 for human Calu-1 cells; assay type: toxicity; conditions: Vero cells / Calu-1 cells, read-out: Ratio IC50
Calu-1 = assay: Antiproliferative activity against human Calu-1 cells incubated for 24 hrs by MTT assay; assay type: functional, cell-based; conditions: Calu-1, 24 h
Vero = assay: Cytotoxicity against African green monkey Vero cells; assay type: cell-based; conditions: Chlorocebus sabaeus
[8] = Selectivity ratio of IC50 for human L02 cells to IC50 for human Calu-1 cells; assay type: toxicity; conditions: L02 cells / Calu-1 cells, read-out: Ratio IC50
[9] = Selectivity ratio of IC50 for African green monkey Vero cells to IC50 for human A549 cells; assay type: toxicity; conditions: read-out: Ratio IC50
HeLa [10] = assay: Antiproliferative activity against human HeLa cells incubated for 24 hrs by MTT assay; assay type: functional, cell-based
[11] = Selectivity ratio of IC50 for human L02 cells to IC50 for human A549 cells; assay type: toxicity; conditions: read-out: Ratio IC50
[12] = Selectivity ratio of IC50 for human L02 cells to IC50 for human HeLa cells; assay type: toxicity; conditions: read-out: Ratio IC50
[13] = Selectivity ratio of IC50 for African green monkey Vero cells to IC50 for human HeLa cells; assay type: toxicity; conditions: read-out: Ratio IC50
A549 [14] = assay: Antiproliferative activity against human A549 cells incubated for 24 hrs by MTT assay; assay type: functional, cell-based; conditions: A549, 24 h
A549 [15] = assay: Antiproliferative activity against human A549 cells incubated for 48 hrs by MTT assay; assay type: functional, cell-based; conditions: A549, 48 h
A549 [16] = assay: Potency index, ratio of cisplatin IC50 to test compound IC50 for antiproliferative activity against human A549 cells; assay type: functional
SMMC-7721 [17] = assay: Potency index, ratio of cisplatin IC50 to test compound IC50 for antiproliferative activity against human SMMC7721 cells; assay type: functional
SMMC-7721 [18] = assay: Antiproliferative activity against human SMMC-7721 cells incubated for 48 hrs by MTT assay; assay type: functional, cell-based; conditions: SMMC-7721, 48 h
SW480 [19] = assay: Antiproliferative activity against human SW480 cells incubated for 48 hrs by MTT assay; assay type: functional, cell-based; conditions: SW480, 48 h
SW480 [20] = assay: Potency index, ratio of cisplatin IC50 to test compound IC50 for antiproliferative activity against human SW480 cells; assay type: functional
MCF7 [21] = assay: Potency index, ratio of cisplatin IC50 to test compound IC50 for antiproliferative activity against human MCF7 cells; assay type: functional
HL-60 [22] = assay: Antiproliferative activity against human HL-60 cells incubated for 48 hrs by MTT assay; assay type: functional, cell-based; conditions: HL-60, 48 h
MCF7 [23] = assay: Antiproliferative activity against human MCF7 cells incubated for 48 hrs by MTT assay; assay type: functional, cell-based; conditions: MCF7, 48 h
HL-60 [24] = assay: Potency index, ratio of cisplatin IC50 to test compound IC50 for antiproliferative activity against human HL-60 cells; assay type: functional
L02 [25] = assay: Cytotoxicity against human HL7702 cells incubated for 48 hrs by MTT assay; assay type: cell-based; conditions: L02, 48 h
HepG2 = assay: Antiproliferative activity against human HepG2 cells incubated for 48 hrs by MTT assay; assay type: functional, cell-based; conditions: HepG2, 48 h
BGC-823 [26] = assay: Antiproliferative activity against human BGC-823 cells incubated for 48 hrs by MTT assay; assay type: functional, cell-based; conditions: BGC-823, 48 h
KB = assay: Cytotoxicity against human KB cells by MTT assay; assay type: functional, cell-based
K562/A02 = assay: Cytotoxicity against human K562/A02 cells by SRB assay; assay type: functional, cell-based
[27] = Cytotoxicity against human KBV cells by MTT assay; assay type: functional, cell-based
K562 [28] = assay: Cytotoxicity against human K562 cells by SRB assay; assay type: functional, cell-based
HeLa [29] = assay: Cytotoxicity against human HeLa cells by MTT assay; assay type: functional, cell-based
BGC-823 [30] = assay: Antiproliferative activity against human BGC-823 cells incubated for 72 hrs by MTT assay; assay type: functional, cell-based; conditions: BGC-823, 72 h
MKN-45 = assay: Antiproliferative activity against human MKN-45 cells incubated for 72 hrs by MTT assay; assay type: functional, cell-based; conditions: Homo sapiens, MKN-45, 72 h
L02 [31] = assay: Cytotoxicity against human L02 cells incubated for 24 hrs by CCK8 assay; assay type: functional, cell-based; conditions: L02, 24 h
MCF7 [32] = assay: Antiproliferative activity against human MCF7 cells incubated for 24 hrs by MTT assay; assay type: functional, cell-based; conditions: MCF7, 24 h
[33] = Cytotoxicity against PBMC (unknown origin) incubated for 24 hrs by CCK8 assay

With COc1cc([C@@H]2c3cc4c(cc3[C@H](OCC(=O)N3C(=O)C(=O)c5c(Br)cccc53)[C@H]3COC(=O)[C@H]23)OCO4)cc(OC)c1OC the IC50 (K562 [1]) was 19 nM, the “Ratio IC50” value (K562/Adr [2]) was 8.8 and the “Ratio IC50” value (K562 [3]) was 8.8. The IC50 (K562/Adr [4]) was 19 nM.
Compound COc1cc([C@@H]2c3cc4c(cc3[C@H](OC(=O)c3ccc5[nH]ccc5c3)[C@H]3COC(=O)[C@H]23)OCO4)cc(OC)c1OC has an IC50 (K562/VCR) of 81 nM and an IC50 (K562 [5]) of 81 nM.
Work on COc1cc([C@@H]2c3cc4c(cc3[C@H](OC(=O)CCCCC3CCSC(c5ccc(C)cc5)S3)[C@H]3COC(=O)[C@H]23)OCO4)cc(OC)c1OC (stereo not given in full) yielded an IC50 (L02 [6]) of over 93800 nM, a selectivity ratio [7] of at least 9.7 and an IC50 (Calu-1) of 2680 nM. The IC50 (Vero) was over 93800 nM, the selectivity ratio [8] was at least 9.7 and the selectivity ratio [9] was at least 9.7. The IC50 (HeLa [10]) was 2680 nM, the selectivity ratio [11] was at least 9.7 and the selectivity ratio [12] was at least 9.7. The selectivity ratio [13] was at least 9.7 and the IC50 (A549 [14]) was 2680 nM.
With CCCC(=O)O[C@@H]1[C@@H](OC(=O)CCC)[C@@H](O[C@@H]2c3cc4c(cc3[C@@H](c3cc(OC)c(OC)c(OC)c3)[C@H]3C(=O)OC[C@@H]32)OCO4)OC[C@H]1OC(=O)CCC the IC50 (A549 [15]) was over 2900 nM, the “Ratio IC50” value (A549 [16]) was 1.9 and the “Ratio IC50” value (SMMC-7721 [17]) was 1.9. For the same compound, the IC50 (SMMC-7721 [18]) was over 2900 nM, the IC50 (SW480 [19]) was over 2900 nM and the “Ratio IC50” value (SW480 [20]) was 1.9. For the same compound, the “Ratio IC50” value (MCF7 [21]) was 1.9, the IC50 (HL-60 [22]) was 140 nM and the IC50 (MCF7 [23]) was over 2900 nM.
With COc1cc([C@@H]2c3cc4c(cc3[C@@H](n3cc(COC[C@H]5O[C@@H](OCc6cn([C@@H]7c8cc9c(cc8[C@@H](c8cc(OC)c(O)c(OC)c8)[C@H]8C(=O)OC[C@@H]87)OCO9)nn6)[C@H](OC(C)=O)[C@@H](OC(C)=O)[C@@H]5OC(C)=O)nn3)[C@H]3COC(=O)[C@H]23)OCO4)cc(OC)c1O the IC50 (A549 [15]) was 14000 nM, the “Ratio IC50” value (A549 [16]) was 2.8 and the “Ratio IC50” value (SMMC-7721 [17]) was 2.8. For the same compound, the “Ratio IC50” value (HL-60 [24]) was 2.8, the IC50 (SMMC-7721 [18]) was 14000 nM and the IC50 (SW480 [19]) was 14000 nM. For the same compound, the “Ratio IC50” value (SW480 [20]) was 2.8, the “Ratio IC50” value (MCF7 [21]) was 2.8 and the IC50 (HL-60 [22]) was 14000 nM. For the same compound, the IC50 (MCF7 [23]) was 14000 nM.
COc1cc([C@@H]2c3cc4c(cc3[C@@H](Sc3nc(N)nc5nc[nH]c35)[C@H]3COC(=O)[C@H]23)OCO4)cc(OC)c1OC showed an IC50 (A549 [15]) of 300 nM, an IC50 (L02 [25]) of 300 nM and an IC50 (HepG2) of 300 nM. For the same compound, the IC50 (BGC-823 [26]) was 300 nM.
With CCCC(=O)O[C@@H]1[C@@H](OC(=O)CCC)[C@H](OCc2cn([C@@H]3c4cc5c(cc4[C@@H](c4cc(OC)c(O)c(OC)c4)[C@H]4C(=O)OC[C@@H]43)OCO5)nn2)O[C@H](COCc2cn([C@@H]3c4cc5c(cc4[C@@H](c4cc(OC)c(O)c(OC)c4)[C@H]4C(=O)OC[C@@H]43)OCO5)nn2)[C@H]1OC(=O)CCC the IC50 (A549 [15]) was 14000 nM, the “Ratio IC50” value (A549 [16]) was 2.8 and the “Ratio IC50” value (SMMC-7721 [17]) was 2.8. The “Ratio IC50” value (HL-60 [24]) was 2.8, the IC50 (SMMC-7721 [18]) was 14000 nM and the IC50 (SW480 [19]) was 14000 nM. For the same compound, the “Ratio IC50” value (SW480 [20]) was 2.8, the “Ratio IC50” value (MCF7 [21]) was 2.8 and the IC50 (HL-60 [22]) was 14000 nM. It also gave an IC50 (MCF7 [23]) of 14000 nM.
For COC(=O)c1cccc2c1c(C(=O)C(=O)N[C@@H]1c3cc4c(cc3[C@@H](c3cc(OC)c(OC)c(OC)c3)[C@H]3C(=O)OC[C@@H]31)OCO4)cn2C(=O)c1ccccc1, the IC50 (KB) was 3160 nM, the IC50 (K562/A02) was 150 nM and the IC50 [27] was 150 nM. The IC50 (K562 [28]) was 150 nM and the IC50 (HeLa [29]) was 150 nM.
With CC1=C(/C=C/C(C)=C/C=C/C(C)=C/C(O)O)C(C)(C)CCC1 the IC50 (BGC-823 [30]) was 83100 nM and the IC50 (MKN-45) was 88500 nM.
In the case of COc1cc([C@@H]2c3cc4c(cc3[C@H](O)[C@H]3COC(=O)[C@H]23)OCO4)cc(OC)c1OC [PODOFILOX], the IC50 (A549 [15]) is reported as 4310 nM, the IC50 (L02 [6]) is reported as 3160 nM and the IC50 (L02 [25]) is reported as 4310 nM. For the same compound, the IC50 (Calu-1) was 2680 nM, the IC50 (HepG2) was 4310 nM and the IC50 (Vero) was 1040 nM. For the same compound, the IC50 (L02 [31]) was 2970 nM, the IC50 (MCF7 [32]) was 2130 nM and the IC50 (BGC-823 [26]) was 4310 nM. The IC50 (HeLa [10]) was 2130 nM, the IC50 [33] was 5020 nM and the IC50 (A549 [14]) was 2130 nM.
In the case of CC[C@]1(O)C[C@H]2CN(CCc3c([nH]c4ccccc34)[C@@](C(=O)OC)(c3cc4c(cc3OC)N(C=O)[C@H]3[C@@](O)(C(=O)OC)[C@H](OC(C)=O)[C@]5(CC)C=CCN6CC[C@]43[C@@H]65)C2)C1 [VINCRISTINE], the IC50 [27] is reported as 50300 nM.
